Results on 25 compounds are retold here after ChEMBL document CHEMBL3853350 (ACS Med Chem Lett, 2016).

Each structure is given as a SMILES string. A value given as a limit tells only on which side of the number the result lay.

The target in series [1] is PI3-kinase p110-delta/p85-alpha (Homo sapiens, UniProt O00329). As to the kind of experiment: Inhibition of human recombinant full length N-terminal GST-tagged PI3K p110delta/p85alpha coexpressed in baculovirus infected Sf9 insect cells using diC8PIP2 as substrate incubated for 15 mins followed by substrate addition measured after 2 hr by ADP-Glo luminescence assay. Background: ADP-Glo first removes unused ATP, then detects ADP through luciferase.

Series [2] addresses Phosphatidylinositol 4,5-bisphosphate 3-kinase catalytic subunit gamma isoform (Homo sapiens, UniProt P48736). As to the kind of experiment: biochemical.
Description: Inhibition of human recombinant full length N-terminal His-tagged PI3Kgamma expressed in Sf9 insect cells using diC8PIP2 as substrate incubated for 15 mins followed by substrate addition measured after 2 hr by ADP-Glo luminescence assay
The nature of series [3]: Half life in mouse hepatocytes at 1 uM by LC/MS analysis. Format: ADME, cell-based, Hepatocyte.

Broadly, the IC50 is the midpoint of a concentration-inhibition curve. Usually half-life stands for the time needed for the level to fall by half in the phase considered. Read a high half-life as slow decline.

Sequence of PI3-kinase p110-delta/p85-alpha (P27986 whole entry): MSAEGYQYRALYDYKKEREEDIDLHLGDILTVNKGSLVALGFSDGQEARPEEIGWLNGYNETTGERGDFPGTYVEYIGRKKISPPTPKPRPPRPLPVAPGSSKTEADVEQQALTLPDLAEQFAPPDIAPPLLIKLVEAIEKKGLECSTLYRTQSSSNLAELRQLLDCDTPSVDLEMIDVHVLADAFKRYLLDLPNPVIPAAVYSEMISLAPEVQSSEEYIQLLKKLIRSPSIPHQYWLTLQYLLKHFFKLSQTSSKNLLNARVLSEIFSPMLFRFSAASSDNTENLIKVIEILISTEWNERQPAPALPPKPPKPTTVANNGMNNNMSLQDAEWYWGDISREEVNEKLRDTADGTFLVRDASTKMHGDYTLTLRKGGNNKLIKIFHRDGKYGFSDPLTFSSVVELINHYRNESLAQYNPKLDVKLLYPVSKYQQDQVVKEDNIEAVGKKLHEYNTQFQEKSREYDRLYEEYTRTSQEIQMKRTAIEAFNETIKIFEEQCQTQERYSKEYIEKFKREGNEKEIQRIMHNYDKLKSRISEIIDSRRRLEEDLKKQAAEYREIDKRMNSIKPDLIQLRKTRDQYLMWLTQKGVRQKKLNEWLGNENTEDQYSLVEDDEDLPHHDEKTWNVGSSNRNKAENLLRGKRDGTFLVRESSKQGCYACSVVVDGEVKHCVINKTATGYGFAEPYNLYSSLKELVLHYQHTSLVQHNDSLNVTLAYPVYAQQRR
Sequence of PI3-kinase p110-delta/p85-alpha (O00329 whole entry): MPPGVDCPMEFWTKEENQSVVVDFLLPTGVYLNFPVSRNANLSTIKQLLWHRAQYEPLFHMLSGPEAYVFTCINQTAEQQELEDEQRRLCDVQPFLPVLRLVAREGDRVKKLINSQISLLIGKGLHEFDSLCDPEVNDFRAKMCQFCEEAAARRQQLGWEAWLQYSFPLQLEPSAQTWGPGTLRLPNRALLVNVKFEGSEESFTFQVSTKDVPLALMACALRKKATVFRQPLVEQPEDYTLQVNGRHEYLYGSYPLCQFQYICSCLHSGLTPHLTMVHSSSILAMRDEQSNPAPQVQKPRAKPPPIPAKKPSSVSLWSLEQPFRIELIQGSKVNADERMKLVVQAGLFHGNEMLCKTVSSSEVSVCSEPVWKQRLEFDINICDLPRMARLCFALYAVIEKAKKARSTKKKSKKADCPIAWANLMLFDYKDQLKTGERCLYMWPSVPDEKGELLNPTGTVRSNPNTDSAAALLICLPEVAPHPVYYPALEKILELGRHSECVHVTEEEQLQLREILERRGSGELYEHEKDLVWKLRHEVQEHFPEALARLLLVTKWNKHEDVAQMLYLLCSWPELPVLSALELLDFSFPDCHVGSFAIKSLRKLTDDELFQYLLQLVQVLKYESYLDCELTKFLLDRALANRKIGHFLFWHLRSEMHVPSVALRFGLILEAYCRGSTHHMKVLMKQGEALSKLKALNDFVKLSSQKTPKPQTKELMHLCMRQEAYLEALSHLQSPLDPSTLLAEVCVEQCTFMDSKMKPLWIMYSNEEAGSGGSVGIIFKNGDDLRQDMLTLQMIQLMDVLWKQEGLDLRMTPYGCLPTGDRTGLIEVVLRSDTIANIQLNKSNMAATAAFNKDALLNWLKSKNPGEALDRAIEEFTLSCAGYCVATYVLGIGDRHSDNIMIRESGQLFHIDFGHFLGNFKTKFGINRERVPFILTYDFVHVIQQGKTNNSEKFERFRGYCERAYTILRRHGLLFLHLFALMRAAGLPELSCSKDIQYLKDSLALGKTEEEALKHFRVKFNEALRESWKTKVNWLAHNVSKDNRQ
Sequence of Phosphatidylinositol 4,5-bisphosphate 3-kinase catalytic subunit gamma isoform (P48736 whole entry, canonical isoform): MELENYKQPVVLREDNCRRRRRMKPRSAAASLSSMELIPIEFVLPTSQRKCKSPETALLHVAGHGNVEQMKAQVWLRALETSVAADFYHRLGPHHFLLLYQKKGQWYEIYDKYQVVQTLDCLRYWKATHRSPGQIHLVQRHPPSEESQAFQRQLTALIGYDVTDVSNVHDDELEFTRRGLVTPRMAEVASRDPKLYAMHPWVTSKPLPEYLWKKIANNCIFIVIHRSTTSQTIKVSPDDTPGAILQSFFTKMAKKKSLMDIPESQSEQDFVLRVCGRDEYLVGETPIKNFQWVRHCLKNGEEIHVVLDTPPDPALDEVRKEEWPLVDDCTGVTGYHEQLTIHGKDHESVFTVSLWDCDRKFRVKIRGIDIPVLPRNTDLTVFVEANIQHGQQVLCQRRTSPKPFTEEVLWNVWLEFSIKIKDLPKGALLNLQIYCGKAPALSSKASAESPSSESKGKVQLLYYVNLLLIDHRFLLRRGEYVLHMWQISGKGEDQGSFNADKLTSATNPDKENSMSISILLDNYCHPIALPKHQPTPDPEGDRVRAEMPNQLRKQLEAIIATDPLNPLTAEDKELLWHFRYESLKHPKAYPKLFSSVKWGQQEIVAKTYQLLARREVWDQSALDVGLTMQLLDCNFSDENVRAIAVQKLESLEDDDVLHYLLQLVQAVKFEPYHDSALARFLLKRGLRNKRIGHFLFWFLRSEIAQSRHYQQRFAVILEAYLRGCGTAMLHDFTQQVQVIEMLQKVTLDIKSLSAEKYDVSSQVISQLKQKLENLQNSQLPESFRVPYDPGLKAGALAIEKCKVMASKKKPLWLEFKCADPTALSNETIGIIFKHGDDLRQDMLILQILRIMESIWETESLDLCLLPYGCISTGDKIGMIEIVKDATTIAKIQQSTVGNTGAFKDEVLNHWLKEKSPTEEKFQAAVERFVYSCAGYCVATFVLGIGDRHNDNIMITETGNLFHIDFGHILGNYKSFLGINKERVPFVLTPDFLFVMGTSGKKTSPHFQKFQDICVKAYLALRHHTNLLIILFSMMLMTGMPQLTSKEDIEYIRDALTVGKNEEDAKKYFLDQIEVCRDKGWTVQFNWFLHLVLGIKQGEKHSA

As for `C[C@H](NC(=O)c1c(N)nn2cccnc12)c1cc2cccc(C#Cc3ccccn3)c2c(=O)n1-c1ccccc1`, the IC50 in series [1] is more than 9600 nM; in series [2] it was 170 nM. The same compound gave a half-life at 1 µM in series [3] of 1.2 h.

On to `C[C@H](NC(=O)c1c(N)nn2cccnc12)c1cc2cccc(Cl)c2c(=O)n1-c1ccccc1`, for which the concentration for half-maximal inhibition (IC50) in series [1] was determined as 400 nM.

With `C/C=C/c1cccc2cc([C@H](C)NC(=O)c3c(N)nn4cccnc34)n(-c3ccccc3)c(=O)c12`, the half-inhibitory concentration (IC50) in series [1] is more than 10000 nM; in series [2], 330 nM.

In the case of `C[C@H](NC(=O)c1c(N)nn2cccnc12)c1cc2cccc(C#Cc3cscn3)c2c(=O)n1-c1ccccc1`, the IC50 in series [1] turned out to be 4800 nM; in series [2], 75 nM. The same compound showed a half-life at 1 µM in series [3] of 4.5 h.

For `C[C@H](NC(=O)c1cnn2cccnc12)c1cc2cccc(Cl)c2c(=O)n1-c1ccccc1`, the IC50 in series [1] is 800 nM; in series [2], 400 nM.

Consider `C[C@H](NC(=O)c1c(N)nn2cccnc12)c1cc2cccc(C#Cc3ccn(C)n3)c2c(=O)n1-c1ccccc1`, for which the half-inhibitory concentration (IC50) in series [1] is more than 9000 nM; in series [2], 100 nM. In addition, the half-life at 1 µM in series [3] was 4.18 h.

With `C[C@H](NC(=O)c1c(N)nn2cccnc12)c1cc2cccc(N(C)C)c2c(=O)n1-c1ccccc1`, the IC50 in series [1] is more than 10000 nM; in series [2], 1100 nM.

For `C#Cc1cccc2cc([C@H](C)NC(=O)c3c(N)nn4cccnc34)n(-c3ccccc3)c(=O)c12`, the IC50 in series [1] was determined as 700 nM; in series [2], 14 nM.

Regarding `C[C@H](NC(=O)c1c(N)nn2ccccc12)c1cc2cccc(Cl)c2c(=O)n1-c1ccccc1`, the concentration for half-maximal inhibition (IC50) in series [1] amounted to 2600 nM.

Regarding `CC[C@H](NC(=O)c1c(N)nn2cccnc12)c1cc2cccc(Cl)c2c(=O)n1-c1ccccc1`, the IC50 was 600 nM in series [1] and 150 nM in series [2].

Take `C[C@H](NC(=O)c1c(N)nn2cccnc12)c1cc2cccc(C#N)c2c(=O)n1-c1ccccc1`: the results for the concentration for half-maximal inhibition (IC50) in series [1] and in series [2] were 3100 nM and 240 nM, respectively.

For `CNc1cccc2cc([C@H](C)NC(=O)c3c(N)nn4cccnc34)n(-c3ccccc3)c(=O)c12`, the IC50 in series [1] was more than 10000 nM; in series [2], 1100 nM.

`C[C@H](NC(=O)c1cncc2cccnc12)c1cc2cccc(Cl)c2c(=O)n1-c1ccccc1`: the IC50 in series [1] was found to be 900 nM; in series [2], 1000 nM.

With `C[C@H](NC(=O)c1c(N)nn2cccnc12)c1cc2cccc(F)c2c(=O)n1-c1ccccc1`, the results for the IC50 in series [1] and in series [2] were 530 nM and 50 nM, respectively.

Regarding `C[C@H](NC(=O)c1c(N)nn2cccnc12)c1cc2cccc(C#Cc3ccccc3)c2c(=O)n1-c1ccccc1`, the values for the IC50 in series [1] and in series [2] were 140 nM and 280 nM, respectively.

Take `C[C@H](NC(=O)c1c(N)nn2cccnc12)c1cc2cccc(C#Cc3nccs3)c2c(=O)n1-c1ccccc1`: the concentration for half-maximal inhibition (IC50) in series [1] is more than 10000 nM; in series [2] it was 360 nM. In series [3], the half-life at 1 µM stood at 0.45 h.

With `C[C@H](NC(=O)c1c(N)nn2cccnc12)c1cc2cccc(C#Cc3cncs3)c2c(=O)n1-c1ccccc1`, the values for the IC50 in series [1] and in series [2] were more than 8000 nM and 110 nM, respectively. For the same compound, in series [3], the half-life at 1 µM was determined as 0.717 h.

As for `COc1cccc2cc([C@H](C)NC(=O)c3c(N)nn4cccnc34)n(-c3ccccc3)c(=O)c12`, the half-inhibitory concentration (IC50) in series [1] is more than 9000 nM; in series [2] it was 1000 nM.

On to `Cc1cccc2cc([C@H](C)NC(=O)c3c(N)nn4cccnc34)n(-c3ccccc3)c(=O)c12`, for which the IC50 in series [1] was 2600 nM; in series [2], 110 nM.

`Nc1nn2cccnc2c1C(=O)NCc1cc2cccc(Cl)c2c(=O)n1-c1ccccc1`: the IC50 in series [1] was more than 10000 nM; in series [2], more than 7000 nM.

In the case of `C[C@H](NC(=O)c1c(N)ncc2cccnc12)c1cc2cccc(Cl)c2c(=O)n1-c1ccccc1`, the IC50 in series [1] is 320 nM; in series [2], 60 nM.

For the compound `C[C@H](NC(=O)c1c(N)nn2cccnc12)c1cc2cccc(C#Cc3cccnc3)c2c(=O)n1-c1ccccc1`, the 50% inhibitory concentration (IC50) was more than 6000 nM in series [1] and 110 nM in series [2]. Moreover, the half-life at 1 µM in series [3] was found to be 1.7 h.

Consider `C[C@H](NC(=O)c1c(N)nn2cccnc12)c1cc2cccc(C#Cc3ccncc3)c2c(=O)n1-c1ccccc1`, for which the values for the IC50 in series [1] and in series [2] were more than 9000 nM and 350 nM, respectively. In addition, the half-life at 1 µM in series [3] is 0.85 h.

On to `CC#Cc1cccc2cc([C@H](C)NC(=O)c3c(N)nn4cccnc34)n(-c3ccccc3)c(=O)c12`, for which the IC50 in series [1] is more than 1000 nM; in series [2], 25 nM.

On to `C[C@H](NC(=O)c1c(N)ncc2ccccc12)c1cc2cccc(Cl)c2c(=O)n1-c1ccccc1`, for which the IC50 in series [1] and in series [2] was more than 10000 nM in each case.
